Test results from US20260199325A1, “NOVEL SUBSTITUTED PYRAZINE-CARBOXAMIDE-IMIDAZOPYRIDINE DERIVATIVES” (Boehringer Ingelheim International GmbH, priority 2022, published 2026).

Target: T1, human metabotropic Glutamate 4 receptor (Homo sapiens, UniProt Q14833)
T1 construct: expressed in transfected cells; host or cells: HEK293
Assay: In vitro testing of mGluR4 potency (Assay A), cAMP HTRF in HEK293 cells
Assay type: cell-based
Conditions: for IC50: HEK293 cell overexpressing human mGluR4, 10 uM L-Glutamic acid, 1 uM forskolin

T1 sequence (Q14833 33-912): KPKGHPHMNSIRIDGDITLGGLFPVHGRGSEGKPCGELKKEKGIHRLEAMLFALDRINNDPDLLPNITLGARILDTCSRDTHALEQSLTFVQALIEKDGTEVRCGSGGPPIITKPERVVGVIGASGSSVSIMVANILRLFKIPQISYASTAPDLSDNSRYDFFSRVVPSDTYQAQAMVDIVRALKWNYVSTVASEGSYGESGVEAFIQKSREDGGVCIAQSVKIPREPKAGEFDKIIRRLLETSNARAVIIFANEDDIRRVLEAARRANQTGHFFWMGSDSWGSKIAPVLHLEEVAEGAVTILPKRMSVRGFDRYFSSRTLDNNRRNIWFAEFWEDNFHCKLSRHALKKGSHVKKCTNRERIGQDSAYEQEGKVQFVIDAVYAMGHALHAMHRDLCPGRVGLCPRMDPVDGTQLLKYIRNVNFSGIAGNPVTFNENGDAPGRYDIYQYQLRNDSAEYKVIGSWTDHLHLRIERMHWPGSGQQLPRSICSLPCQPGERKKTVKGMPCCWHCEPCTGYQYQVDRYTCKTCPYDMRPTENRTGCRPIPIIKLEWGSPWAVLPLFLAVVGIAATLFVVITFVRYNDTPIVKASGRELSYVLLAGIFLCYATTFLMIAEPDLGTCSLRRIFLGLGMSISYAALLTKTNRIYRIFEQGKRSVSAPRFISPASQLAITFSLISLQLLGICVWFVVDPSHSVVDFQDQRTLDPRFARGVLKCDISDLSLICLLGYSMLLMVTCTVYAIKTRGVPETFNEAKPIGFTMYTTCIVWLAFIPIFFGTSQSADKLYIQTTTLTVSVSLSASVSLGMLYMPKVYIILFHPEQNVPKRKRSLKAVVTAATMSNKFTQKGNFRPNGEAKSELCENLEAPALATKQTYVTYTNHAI

IC50 (Table 2)	activity as mGluR4 modulators in Assay A (in words)	IC50 (Table 1)	Compound
53 nM	–	–	CCn1c([C@@H](NC(=O)c2cnc(C(F)F)cn2)C2CC2)nc2cnc(C(F)(F)F)cc21 [Example 49, N-[(S)-cyclopropyl[1-ethyl-6-(trifluoromethyl)-1H-imidazo[4,5-c]pyridin-2-yl]methyl]-5-(difluoromethyl)pyrazine-2-carboxamide]
80 nM	–	–	Cc1cnc(C(=O)N[C@H](c2nc3cnc(C(F)(F)F)cc3n2C(C)C)[C@@H]2COCCO2)cn1 [Example 50, N-[(R)-[(2R)-1,4-dioxan-2-yl][1-(propan-2-yl)-6-(trifluoromethyl)-1H-imidazo[4,5-c]pyridin-2-yl]methyl]-5-methylpyrazine-2-carboxamide]
–	no therapeutically relevant activity	13200 nM	Cn1nccc1C(=O)N[C@H](c1nc2ccc(Br)nc2[nH]1)[C@H]1CC[C@H](C)CC1 [Intermediate 213 in WO2019/138017 (regioisomere 2), reference compound]
